Assays:
[1] = molecular target: Tyrosine-protein kinase JAK2 (Homo sapiens, UniProt O60674)
Description: Inhibition of GST tagged recombinant human JAK2 expressed in baculovirus infection system by FRET assay

[2] = molecular target: Tyrosine-protein kinase JAK1 (Homo sapiens, UniProt P23458)
[3] = molecular target: Non-receptor tyrosine-protein kinase TYK2 (Homo sapiens, UniProt P29597)
Description: Inhibition of human TYK2 by FRET assay

[4] = molecular target: T1, Tyrosine-protein kinase JAK3 (Homo sapiens, UniProt P52333)
T1 sequence (P52333 whole entry): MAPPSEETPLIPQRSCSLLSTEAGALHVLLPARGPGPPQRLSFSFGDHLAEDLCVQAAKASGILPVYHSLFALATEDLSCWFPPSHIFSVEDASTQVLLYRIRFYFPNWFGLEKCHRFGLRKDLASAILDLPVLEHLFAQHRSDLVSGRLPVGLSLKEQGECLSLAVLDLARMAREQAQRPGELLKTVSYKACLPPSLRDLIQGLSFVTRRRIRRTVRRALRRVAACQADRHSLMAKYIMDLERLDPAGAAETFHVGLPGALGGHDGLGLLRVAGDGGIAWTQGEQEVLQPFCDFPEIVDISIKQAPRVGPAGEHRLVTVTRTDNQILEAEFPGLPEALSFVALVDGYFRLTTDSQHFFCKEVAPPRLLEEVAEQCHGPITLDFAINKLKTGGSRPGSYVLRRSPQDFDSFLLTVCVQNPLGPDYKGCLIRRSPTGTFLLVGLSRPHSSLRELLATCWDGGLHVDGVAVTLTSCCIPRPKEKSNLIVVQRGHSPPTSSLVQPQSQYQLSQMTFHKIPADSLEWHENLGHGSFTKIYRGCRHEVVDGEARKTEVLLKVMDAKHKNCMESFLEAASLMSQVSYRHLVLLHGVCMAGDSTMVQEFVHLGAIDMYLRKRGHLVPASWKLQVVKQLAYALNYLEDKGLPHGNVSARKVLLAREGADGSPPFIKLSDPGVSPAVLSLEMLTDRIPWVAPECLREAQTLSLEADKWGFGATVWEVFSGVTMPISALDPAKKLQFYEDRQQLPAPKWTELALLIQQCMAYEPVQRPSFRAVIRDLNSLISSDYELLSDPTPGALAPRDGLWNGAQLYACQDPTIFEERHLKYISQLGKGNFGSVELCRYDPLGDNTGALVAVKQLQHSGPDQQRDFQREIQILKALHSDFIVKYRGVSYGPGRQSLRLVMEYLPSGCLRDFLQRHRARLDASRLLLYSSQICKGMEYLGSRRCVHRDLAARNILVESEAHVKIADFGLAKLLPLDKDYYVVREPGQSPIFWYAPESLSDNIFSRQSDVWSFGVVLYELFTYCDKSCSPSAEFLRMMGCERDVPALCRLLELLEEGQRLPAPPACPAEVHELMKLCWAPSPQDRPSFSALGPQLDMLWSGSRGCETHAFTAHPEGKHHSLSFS
Description: Inhibition of GST tagged recombinant human JAK3 expressed in baculovirus infection system by FRET assay

BaF3 [5] = assay: cells; conditions: Mus musculus, BaF3, 72 h
BaF3 [6] = assay: cells; conditions: Mus musculus, BaF3, 72 h; remark: listed apart in the source
BaF3 [7] = assay: cells; conditions: Mus musculus, BaF3, 72 h; remark: listed apart in the source
Description: Antiproliferative activity against mouse BaF3 parent cell measured after 72 hrs by CCK-8 assay

BaF3 [8] = assay: cells; conditions: Mus musculus, BaF3, 72 h; remark: listed apart in the source
U-937 = assay: cells; conditions: Homo sapiens, U-937, 72 h
[9] = Cmax in 12 hr fasted SPF Sprague-Dawley rat at 15 mg/kg, po upon 2 hrs fasting post-administration measured upto 24 hrs; assay type: ADME, organism-based; set-up: time < 24 hrs, dose 15 mg/kg, route po; conditions: in vivo
[10] = Half life in 12 hr fasted SPF Sprague-Dawley rat at 15 mg/kg, po upon 2 hrs fasting post-administration measured upto 24 hrs; assay type: ADME, organism-based; conditions: in vivo
[11] = AUC(0 to infinity) in 12 hr fasted SPF Sprague-Dawley rat at 15 mg/kg, po upon 2 hrs fasting post-administration upto 24 hrs; assay type: ADME, organism-based; set-up: dose 15 mg/kg, time < 24 hrs, route po; conditions: in vivo
[12] = AUC(0 to infinity) in 12 hr fasted SPF Sprague-Dawley rat at 5 mg/kg, iv upon 2 hrs fasting post-administration measured upto 24 hrs; assay type: ADME, organism-based; set-up: dose 5 mg/kg, time < 24 hrs, route iv; conditions: in vivo
[13] = Cmax in 12 hr fasted SPF Sprague-Dawley rat at 5 mg/kg, iv upon 2 hrs fasting post-administration measured upto 24 hrs; assay type: ADME, organism-based; set-up: dose 5 mg/kg, time < 24 hrs, route iv; conditions: in vivo
[14] = Oral bioavailability in 12 hr fasted SPF Sprague-Dawley rat at 15 mg/kg upon 2 hrs fasting post-administration measured upto 24 hrs; assay type: ADME, organism-based; conditions: in vivo
[15] = Metabolic stability in rat liver microsome assessed as half life preincubated for 5 mins followed by NADPH addition measured upto 45 mins by LC/MS analysis; assay type: ADME; conditions: liver microsomes, time < 50 min
[16] = Clearance in 12 hr fasted SPF Sprague-Dawley rat at 5 mg/kg, iv upon 2 hrs fasting post-administration measured upto 24 hrs; assay type: ADME, organism-based; conditions: in vivo
[17] = Half life in 12 hr fasted SPF Sprague-Dawley rat at 5 mg/kg, iv upon 2 hrs fasting post-administration measured upto 24 hrs; assay type: ADME, organism-based; conditions: in vivo

Sequence of Tyrosine-protein kinase JAK1 (P23458 whole entry): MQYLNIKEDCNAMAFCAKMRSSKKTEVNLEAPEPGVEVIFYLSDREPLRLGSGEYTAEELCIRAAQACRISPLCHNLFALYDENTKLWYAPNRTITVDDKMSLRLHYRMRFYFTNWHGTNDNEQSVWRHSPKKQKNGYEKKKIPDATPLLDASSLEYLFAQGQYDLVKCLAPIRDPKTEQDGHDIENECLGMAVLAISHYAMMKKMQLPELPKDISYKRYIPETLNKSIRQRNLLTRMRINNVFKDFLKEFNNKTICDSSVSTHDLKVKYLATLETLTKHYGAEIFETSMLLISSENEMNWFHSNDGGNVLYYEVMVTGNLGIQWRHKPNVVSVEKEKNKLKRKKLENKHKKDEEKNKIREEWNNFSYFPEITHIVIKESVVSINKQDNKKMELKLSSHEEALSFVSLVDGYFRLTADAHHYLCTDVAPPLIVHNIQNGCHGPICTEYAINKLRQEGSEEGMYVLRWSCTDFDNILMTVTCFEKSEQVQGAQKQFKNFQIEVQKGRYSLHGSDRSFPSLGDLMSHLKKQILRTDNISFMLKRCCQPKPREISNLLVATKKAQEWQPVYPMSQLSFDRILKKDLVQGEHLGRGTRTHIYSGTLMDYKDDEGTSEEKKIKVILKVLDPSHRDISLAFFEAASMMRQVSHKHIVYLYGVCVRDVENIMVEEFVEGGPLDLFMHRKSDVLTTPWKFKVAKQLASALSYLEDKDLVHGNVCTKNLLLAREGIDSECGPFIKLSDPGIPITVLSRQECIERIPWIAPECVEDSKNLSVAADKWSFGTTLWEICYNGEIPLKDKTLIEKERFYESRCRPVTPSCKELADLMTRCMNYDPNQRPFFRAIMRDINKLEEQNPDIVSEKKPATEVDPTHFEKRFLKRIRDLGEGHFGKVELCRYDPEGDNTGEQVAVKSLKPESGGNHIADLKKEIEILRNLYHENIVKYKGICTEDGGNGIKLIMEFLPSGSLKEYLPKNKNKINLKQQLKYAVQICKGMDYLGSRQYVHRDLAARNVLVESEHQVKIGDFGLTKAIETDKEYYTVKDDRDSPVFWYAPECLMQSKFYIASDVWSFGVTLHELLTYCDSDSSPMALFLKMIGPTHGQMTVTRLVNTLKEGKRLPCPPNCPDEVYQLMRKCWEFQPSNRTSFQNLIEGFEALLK
Sequence of Non-receptor tyrosine-protein kinase TYK2 (P29597 whole entry): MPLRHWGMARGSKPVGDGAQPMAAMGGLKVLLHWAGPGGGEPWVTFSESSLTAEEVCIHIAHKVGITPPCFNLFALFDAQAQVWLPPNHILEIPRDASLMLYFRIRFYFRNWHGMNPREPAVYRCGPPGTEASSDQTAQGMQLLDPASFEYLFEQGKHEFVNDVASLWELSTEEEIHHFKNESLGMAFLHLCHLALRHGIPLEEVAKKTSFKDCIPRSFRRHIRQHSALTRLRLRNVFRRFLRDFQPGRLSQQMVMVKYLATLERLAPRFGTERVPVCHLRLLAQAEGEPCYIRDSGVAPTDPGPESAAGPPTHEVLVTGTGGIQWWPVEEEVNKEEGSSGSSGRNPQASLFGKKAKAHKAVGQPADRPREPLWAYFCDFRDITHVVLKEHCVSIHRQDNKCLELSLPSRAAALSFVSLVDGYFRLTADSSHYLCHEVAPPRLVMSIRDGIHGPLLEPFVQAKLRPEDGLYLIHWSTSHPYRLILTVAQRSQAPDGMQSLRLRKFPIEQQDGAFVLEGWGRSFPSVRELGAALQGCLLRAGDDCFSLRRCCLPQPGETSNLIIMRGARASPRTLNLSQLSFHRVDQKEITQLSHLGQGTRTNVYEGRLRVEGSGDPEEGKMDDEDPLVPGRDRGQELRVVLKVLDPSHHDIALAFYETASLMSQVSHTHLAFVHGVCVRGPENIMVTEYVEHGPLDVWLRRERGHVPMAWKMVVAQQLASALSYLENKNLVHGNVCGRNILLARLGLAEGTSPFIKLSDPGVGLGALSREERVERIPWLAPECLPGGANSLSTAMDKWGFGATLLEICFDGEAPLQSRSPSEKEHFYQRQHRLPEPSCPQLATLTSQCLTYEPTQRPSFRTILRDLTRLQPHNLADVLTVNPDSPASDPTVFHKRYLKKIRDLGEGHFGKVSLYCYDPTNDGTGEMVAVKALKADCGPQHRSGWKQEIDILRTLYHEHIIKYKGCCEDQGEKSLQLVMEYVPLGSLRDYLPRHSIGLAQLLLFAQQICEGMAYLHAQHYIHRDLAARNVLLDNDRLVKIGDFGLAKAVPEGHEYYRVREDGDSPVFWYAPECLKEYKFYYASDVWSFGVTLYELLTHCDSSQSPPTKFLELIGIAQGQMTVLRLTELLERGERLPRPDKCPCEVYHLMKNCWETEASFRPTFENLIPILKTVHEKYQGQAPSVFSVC
Sequence of Tyrosine-protein kinase JAK2 (O60674 whole entry): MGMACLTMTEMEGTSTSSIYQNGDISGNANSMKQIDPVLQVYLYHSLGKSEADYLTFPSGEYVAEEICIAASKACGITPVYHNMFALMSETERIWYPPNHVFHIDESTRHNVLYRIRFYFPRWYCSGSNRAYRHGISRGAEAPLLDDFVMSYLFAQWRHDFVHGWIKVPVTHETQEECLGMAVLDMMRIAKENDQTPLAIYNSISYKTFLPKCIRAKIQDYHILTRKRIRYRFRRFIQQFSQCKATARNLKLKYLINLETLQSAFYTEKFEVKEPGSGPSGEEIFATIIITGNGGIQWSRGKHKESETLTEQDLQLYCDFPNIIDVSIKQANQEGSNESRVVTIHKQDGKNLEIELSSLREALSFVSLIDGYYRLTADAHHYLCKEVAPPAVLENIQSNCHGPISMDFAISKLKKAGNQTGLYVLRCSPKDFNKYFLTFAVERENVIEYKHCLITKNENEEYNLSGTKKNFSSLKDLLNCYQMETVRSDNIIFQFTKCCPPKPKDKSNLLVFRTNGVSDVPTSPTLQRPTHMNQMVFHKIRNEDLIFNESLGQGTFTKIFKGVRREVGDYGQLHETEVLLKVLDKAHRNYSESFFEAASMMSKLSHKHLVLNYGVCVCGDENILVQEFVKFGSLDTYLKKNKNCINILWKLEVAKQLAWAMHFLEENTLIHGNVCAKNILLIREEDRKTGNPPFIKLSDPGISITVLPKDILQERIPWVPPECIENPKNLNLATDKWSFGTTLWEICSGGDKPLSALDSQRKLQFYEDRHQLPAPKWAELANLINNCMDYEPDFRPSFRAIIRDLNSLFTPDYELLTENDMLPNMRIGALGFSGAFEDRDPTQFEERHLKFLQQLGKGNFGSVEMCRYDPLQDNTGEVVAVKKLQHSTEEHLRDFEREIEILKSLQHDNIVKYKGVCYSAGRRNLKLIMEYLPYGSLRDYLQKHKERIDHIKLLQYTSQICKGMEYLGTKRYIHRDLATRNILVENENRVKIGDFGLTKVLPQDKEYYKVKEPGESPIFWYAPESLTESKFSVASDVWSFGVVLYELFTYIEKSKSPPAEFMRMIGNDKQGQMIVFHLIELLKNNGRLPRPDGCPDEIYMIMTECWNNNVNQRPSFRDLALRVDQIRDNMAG

C=CC(=O)Nc1cccc(Nc2ncc(Cl)c(O[C@@H]3CO[C@H]4[C@@H]3OC[C@H]4O)n2)c1
IC50 [1]: 1400 nM
IC50 [2]: 556 nM
IC50 [3]: 94 nM
IC50 [4]: 1.2 nM

CN1CCN(C2CCN(c3ccc(Nc4ncc(Cl)c(O[C@@H]5CO[C@H]6[C@@H]5OC[C@H]6O)n4)cc3Cl)CC2)CC1
IC50 (BaF3 [5]): > 10000 nM
IC50 (BaF3 [6]): > 10000 nM
IC50 (BaF3 [7]): 1380 nM
IC50 (BaF3 [8]): 1650 nM

C=CC(=O)Nc1cc(Nc2ncc(Cl)c(O[C@@H]3CO[C@H]4[C@@H]3OC[C@H]4OCC)n2)ccc1N(C)CCN(C)C
IC50 (BaF3 [5]): 137 nM
IC50 (BaF3 [6]): 313 nM
IC50 (BaF3 [7]): 161 nM
IC50 (BaF3 [8]): 108 nM
IC50 (U-937): 30 nM

C=CC(=O)Nc1cc(Nc2ncc(Cl)c(O[C@@H]3CO[C@H]4[C@@H]3OC[C@H]4O)n2)ccc1N1CCC(N(C)C)C1 (stereo partly drawn)
IC50 [4]: 1.9 nM

C=CC(=O)Nc1cc(Nc2ncc(Cl)c(O[C@@H]3CO[C@H]4[C@@H]3OC[C@@H]4F)n2)ccc1N(C)CCN(C)C
IC50 (BaF3 [5]): 418 nM
IC50 (BaF3 [6]): 435 nM
IC50 (BaF3 [7]): 476 nM
IC50 (BaF3 [8]): 88.6 nM
IC50 (U-937): 40.7 nM

C=CC(=O)Nc1cc(Nc2ncc(Cl)c(O[C@@H]3CO[C@H]4[C@@H]3OC[C@H]4O)n2)ccc1N1CCOCC1
IC50 [4]: 1.6 nM

C=CC(=O)Nc1cc(Nc2ncc(Cl)c(O[C@@H]3CO[C@H]4[C@@H]3OC[C@H]4O)n2)ccc1N1CCC(N2CCN(C)CC2)CC1
IC50 (BaF3 [5]): 46.3 nM
IC50 [1]: 1030 nM
IC50 [2]: 1540 nM
IC50 (BaF3 [6]): 122 nM
IC50 (BaF3 [7]): 40.4 nM
IC50 (BaF3 [8]): 20.1 nM
IC50 [3]: 369 nM
IC50 [4]: 1.8 nM
IC50 (U-937): 35.9 nM

C=CC(=O)N1C[C@H](Nc2ncnc3[nH]ccc23)CC[C@@H]1C [RITLECITINIB]
IC50 (BaF3 [5]): > 10000 nM
IC50 (BaF3 [6]): > 10000 nM
IC50 (BaF3 [7]): > 10000 nM
IC50 (BaF3 [8]): 28.1 nM
IC50 (U-937): 19.5 nM

C=CC(=O)Nc1cc(Nc2ncc(Cl)c(O[C@@H]3CO[C@H]4[C@@H]3OCC4(F)F)n2)ccc1N(C)CCN(C)C
IC50 (BaF3 [5]): 188 nM
IC50 (BaF3 [6]): 180 nM
IC50 (BaF3 [7]): 214 nM
IC50 (BaF3 [8]): 56.4 nM
IC50 [4]: 1.2 nM
IC50 (U-937): 33.8 nM

C#CCCN(C)CCN(C)c1ccc(Nc2ncc(Cl)c(O[C@@H]3CO[C@H]4[C@@H]3OC[C@H]4OC)n2)cc1NC(=O)C=C
IC50 [4]: 1.7 nM

C=CC(=O)Nc1cc(Nc2ncc(Cl)c(O[C@@H]3CO[C@H]4[C@@H]3OC[C@H]4F)n2)ccc1N(C)CCN(C)C
IC50 (BaF3 [5]): 416 nM
IC50 (BaF3 [6]): 461 nM
IC50 (BaF3 [7]): 519 nM
IC50 (BaF3 [8]): 46.4 nM
IC50 [4]: 1.3 nM
IC50 (U-937): 50.3 nM

C=CC(=O)Nc1cc(Nc2ncc(Cl)c(O[C@@H]3CO[C@H]4[C@@H]3OC[C@H]4O)n2)ccc1N(C)CCN(C)C
IC50 (BaF3 [5]): 149 nM
Cmax [9]: 79.1 ng/mL
half-life [10]: 1.02 h
AUC(0-inf) [11]: 105 ng·h/mL
AUC(0-inf) [12]: 280 ng·h/mL
Cmax [13]: 440 ng/mL
bioavailability [14]: 12.4%
IC50 (BaF3 [6]): 133 nM
IC50 (BaF3 [7]): 102 nM
half-life at […] [15]: 2 h
IC50 (BaF3 [8]): 24.9 nM
CL [16]: 299.15%
half-life [17]: 0.8 h
IC50 (U-937): 15.2 nM

C=CC(=O)Nc1cc(Nc2ncc(Cl)c(O[C@@H]3CO[C@H]4[C@@H]3OC[C@H]4OC(C)C)n2)ccc1N(C)CCN(C)C
IC50 (BaF3 [5]): 166 nM
IC50 (BaF3 [6]): 336 nM
IC50 (BaF3 [7]): 205 nM
IC50 (BaF3 [8]): 179 nM
IC50 [4]: 1.3 nM
IC50 (U-937): 44 nM

C=CC(=O)Nc1cc(Nc2ncc(Cl)c(O[C@@H]3CO[C@H]4[C@@H]3OC[C@H]4O)n2)ccc1N1C[C@H]2C[C@@H]1CN2C
IC50 [4]: 1.5 nM
